Measurements taken from US8716324B2, “Tricyclic indeno-pyrrole derivatives as serotonin receptor modulators” (Athersys, Inc., priority 2004, dated 2014).

The compounds below were run against human 5HT2c receptor (VSV Isoform) (Homo sapiens, UniProt P28335, I156V/I160V/N158S) (assay: cell-based). Settings: 5-HT2c EC50 (hVSV, μM).
Chain of human 5HT2c receptor (VSV Isoform) (P28335 33-458 I156V/N158S/I160V limits assumed): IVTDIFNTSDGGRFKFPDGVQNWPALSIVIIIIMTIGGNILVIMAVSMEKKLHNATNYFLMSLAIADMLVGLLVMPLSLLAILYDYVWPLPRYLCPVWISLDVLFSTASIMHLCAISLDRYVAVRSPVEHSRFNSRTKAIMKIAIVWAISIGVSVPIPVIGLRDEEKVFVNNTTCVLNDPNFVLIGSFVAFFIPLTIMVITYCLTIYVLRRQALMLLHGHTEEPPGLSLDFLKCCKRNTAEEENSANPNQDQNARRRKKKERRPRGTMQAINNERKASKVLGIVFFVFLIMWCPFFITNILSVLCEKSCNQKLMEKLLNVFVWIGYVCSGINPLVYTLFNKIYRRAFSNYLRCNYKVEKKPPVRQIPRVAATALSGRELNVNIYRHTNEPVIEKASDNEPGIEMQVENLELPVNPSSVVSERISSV

| SMILES | EC50 [µM] |
| --- | --- |
| Cc1ccc2c(c1)C(C)C1CNCC21 (single isomer, unassigned) [15, Enantiomer 1] | < 0.1 |
| CC1c2ccc(-c3c(F)cccc3F)cc2C2CNCC12 (single isomer, unassigned) [47, Enantiomer 2] | > 10 |
| CC1c2cc(Cl)c(OCc3ccc(F)cc3)cc2C2CNCC12 (single isomer, unassigned) [6, Enantiomer 2] | < 1 |
| CC1c2cc(Br)c(O)cc2C2CNCC12 (single isomer, unassigned) [31, Enantiomer 2] | < 0.1 |
| Cc1cc2c(cc1Cl)C1CNCC1C2C (stereo not drawn) [Example 23, 5-Chloro-6-methyl-8-methyl-1,2,3,3a,8,8a-hexahydroindeno[1,2-c]pyrrole] | < 1 |
| COc1ccc2c(c1OC)C1CNCC1C2C (single isomer, unassigned) [34, Enantiomer 1] | < 1 |
| CC1c2ccc(O)cc2C2CNCC12 (single isomer, unassigned) [2, Enantiomer 1] | < 1 |
| COc1cc2c(cc1OC)C1CNCC1C2C (single isomer, unassigned) [36, Enantiomer 2] | < 1 |
| CCC1c2ccc(OC)cc2C2CNCC12 (stereo not drawn) [Example 48, 5-Methoxy-8-ethyl-1,2,3,3a,8,8a-hexahydroindeno[1,2-c]pyrrole] | > 10 |
| Cc1cc2c(cc1Cl)C1CNCC1C2C (single isomer, unassigned) [23, Enantiomer 2] | < 0.1 |
| CC1c2cc(Cl)c(Cl)cc2C2CNCC12 (single isomer, unassigned) [26, Enantiomer 1] | < 1 |
| COc1cc2c(cc1Cl)C(=O)C1CNCC21 (stereo not drawn) [Example 53, 5-Methoxy-6-chloro-2,3,3a,8a-tetrahydro-1H-2-aza-cyclopenta[a]inden-8-one] | < 1 |
| COc1ccc2c(c1Cl)C1CNCC1C2O (stereo not drawn) [Example 54, 4-Chloro-5-methoxy-2,3,3a,8a-tetrahydro-1H-2-aza-cyclopenta[a]inden-8-ol] | < 1 |
| CC1c2c(ccc(Cl)c2Cl)C2CNCC12 (single isomer, unassigned) [27, Enantiomer 2] | < 0.1 |
| COc1ccc2c(c1)C1CNCC1C2C (stereo not drawn) [Example 1, 5-Methoxy-8-methyl-1,2,3,3a,8,8a-hexahydroindeno[1,2-c]pyrrole] | > 10 |
| CC1c2cc(Cl)c(Cl)cc2C2CNCC12 (single isomer, unassigned) [26, Enantiomer 2] | < 0.1 |
| COc1cc2c(cc1OC)C1CNCC1C2C (single isomer, unassigned) [36, Enantiomer 1] | > 10 |
| CCOc1cc2c(cc1Cl)C(C)C1CNCC21 (single isomer, unassigned) [29, Enantiomer 2] | < 0.1 |
| CC1c2ccc(Cl)c(Cl)c2C2CNCC12 (single isomer, unassigned) [41, Enantiomer 2] | < 10 |
| Fc1cccc(F)c1-c1ccc2c(c1)CC1CNCC21 (stereo not drawn) [Example 12, 6-(2,6-Difluorophenyl)-1,2,3,3a,8,8a-hexahydroindeno[1,2-c]pyrrole] | > 10 |
| CC1c2ccc(OCc3ccccc3)cc2C2CNCC12 (single isomer, unassigned) [43, Enantiomer 2] | < 10 |
| Cc1cc2c(cc1Br)C1CNCC1C2C (stereo not drawn) [Example 24, 5-Bromo-6-methyl-8-methyl-1,2,3,3a,8,8a-hexahydroindeno[1,2-c]pyrrole] | < 1 |
| COc1cc2c(cc1Cl)CC1CNCC21 (single isomer, unassigned) [37, Enantiomer 1] | < 0.1 |
| COc1cc2c(cc1Cl)C(C)C1CNCC21 (single isomer, unassigned) [3, Enantiomer 2] | < 0.1 |

| SMILES | EC50 [µM] |
| --- | --- |
| CC1c2c(ccc(Cl)c2F)C2CNCC12 (single isomer, unassigned) [42, Enantiomer 1] | < 10 |
| COc1cc2c(cc1Cl)C(C)C1CNCC21 (stereo not drawn) [Example 3, 5-Methoxy-6-chloro-8-methyl-1,2,3,3a,8,8a-hexahydroindeno[1,2-c]pyrrole] | < 0.1 |
| CC1c2cc(Cl)cc(Cl)c2C2CNCC12 (stereo not drawn) [Example 28, 4,6-Dichloro-8-methyl-1,2,3,3a,8,8a-hexahydroindeno[1,2-c]pyrrole] | < 0.1 |
| Clc1ccc2c(c1)CC1CNCC21 (stereo not drawn) [Example 11, 6-Chloro-1,2,3,3a,8,8a-hexahydroindeno[1,2-c]pyrrole] | < 0.1 |
| Cc1ccc2c(c1)C1CNCC1C2C (stereo not drawn) [Example 13, 5-Methyl-8-methyl-1,2,3,3a,8,8a-hexahydroindeno[1,2-c]pyrrole] | < 1 |
| CC1c2ccc(Cl)c(Cl)c2C2CNCC12 (single isomer, unassigned) [41, Enantiomer 1] | < 1 |
| CC1c2c(ccc(Cl)c2Cl)C2CNCC12 (stereo not drawn) [Example 27, 6,7-Dichloro-8-methyl-1,2,3,3a,8,8a-hexahydroindeno[1,2-c]pyrrole] | < 0.1 |
| CC1c2c(ccc(Cl)c2F)C2CNCC12 (single isomer, unassigned) [42, Enantiomer 2] | < 0.1 |
| Cc1cccc2c1C(C)C1CNCC21 (stereo not drawn) [Example 16, 7-Methyl-8-methyl-1,2,3,3a,8,8a-hexahydroindeno[1,2-c]pyrrole] | < 1 |
| CC1c2cc(Cl)ccc2C2CNCC12 (stereo not drawn) [Example 5, 6-Chloro-8-methyl-1,2,3,3a,8,8a-hexahydroindeno[1,2-c]pyrrole] | < 0.1 |
| CC1c2cc(Cl)c(OCc3ccccc3)cc2C2CNCC12 (stereo not drawn) [Example 7, 5-Benzyloxy-6-chloro-8-methyl-1,2,3,3a,8,8a-hexahydroindeno[1,2-c]pyrrole] | < 10 |
| CC1c2cc(Cl)c(Cl)cc2C2CNCC12 (stereo not drawn) [Example 26, 5,6-Dichloro-8-methyl-1,2,3,3a,8,8a-hexahydroindeno[1,2-c]pyrrole] | < 0.1 |
| COc1cc2c(cc1Cl)C(O)C1CNCC21 (stereo not drawn) [Example 55, 5-Methoxy-6-chloro-2,3,3a,8a-tetrahydro-1H-2-aza-cyclopenta[a]inden-8-ol] | < 10 |
| Cc1cc2c(cc1Br)C(C)C1CNCC21 (stereo not drawn) [Example 22, 5-Methyl-6-bromo-8-methyl-1,2,3,3a,8,8a-hexahydroindeno[1,2-c]pyrrole] | < 1 |
| CC1c2ccc(Cl)cc2C2CNCC12 (stereo not drawn) [Example 20, 5-Chloro-8-methyl-1,2,3,3a,8,8a-hexahydroindeno[1,2-c]pyrrole] | < 10 |
| CC1c2cc(Cl)ccc2C2CNCC12 (single isomer, unassigned) [5, Enantiomer 1] | < 1 |
| Cc1ccc2c(c1)C(C)C1CNCC21 (single isomer, unassigned) [15, Enantiomer 2] | < 1 |
| COc1ccc2c(c1)C1CNCC1C2C (single isomer, unassigned) [1, Enantiomer 2] | < 1 |
| CC1c2ccc(OCc3ccccc3F)cc2C2CNCC12 (single isomer, unassigned) [44, Enantiomer 2] | < 10 |
| CC1c2ccc(F)cc2C2CNCC12 (stereo not drawn) [Example 18, 5-Fluoro-8-methyl-1,2,3,3a,8,8a-hexahydroindeno[1,2-c]pyrrole] | < 1 |
| CC1c2cc(Cl)c(OCC3CC3)cc2C2CNCC12 (stereo not drawn) [Example 39, 5-Cyclopropylmethoxy-6-chloro-8-methyl-1,2,3,3a,8,8a-hexahydroindeno[1,2-c]pyrrole] | < 1 |
| Cc1cccc2c1C1CNCC1C2C (stereo not drawn) [Example 14, 4-Methyl-8-methyl-1,2,3,3a,8,8a-hexahydroindeno[1,2-c]pyrrole] | < 1 |
| CC1c2ccc(OC(F)(F)F)cc2C2CNCC12 (stereo not drawn) [Example 40, 5-Trifluoromethoxy-8-methyl-1,2,3,3a,8,8a-hexahydroindeno[1,2-c]pyrrole] | > 10 |
| COc1c(Cl)cc2c(c1Cl)C1CNCC1C2C (single isomer, unassigned) [38, Enantiomer 1] | < 1 |
